In ChEMBL document CHEMBL1142200, “Efficacy of delayed treatment with ST-246 given orally against systemic orthopoxvirus infections in mice” (Antimicrob Agents Chemother, 2007):
Activity calls are given as the source filed them. The rule behind the calls is not given here.

Columns and labels:
Mus musculus [1] = test: Effect on mortality of BALB/c mouse inoculated with Cowpox virus BR at 100 mg/kg after 24 hrs of viral infection, po once daily for 10 days relative to control; assay type: functional
Mus musculus [2] = test: Effect on mortality of BALB/c mouse inoculated with Vaccinia virus WR at 100 mg/kg after 4 hrs of viral infection, po once daily for 5 days relative to control; assay type: functional
Mus musculus [3] = test: Effect on mortality of BALB/c mouse inoculated with Vaccinia virus WR at 100 mg/kg after 24 hrs of viral infection, po once daily for 5 days relative to control; assay type: functional
Mus musculus [4] = test: Effect on mortality of BALB/c mouse inoculated with Vaccinia virus WR at 100 mg/kg after 4 hrs of viral infection, po once daily for 7 days relative to control; assay type: functional
Mus musculus [5] = test: Effect on mortality of BALB/c mouse inoculated with Vaccinia virus WR at 100 mg/kg after 4 hrs of viral infection, po once daily for 10 days relative to control; assay type: functional
Mus musculus [6] = test: Effect on mortality of BALB/c mouse inoculated with Vaccinia virus WR at 100 mg/kg after 24 hrs of viral infection, po once daily for 10 days relative to control; assay type: functional
Mus musculus [7] = test: Effect on mortality of BALB/c mouse inoculated with Vaccinia virus WR at 100 mg/kg after 24 hrs of viral infection, po once daily for 14 days relative to control; assay type: functional
Mus musculus [8] = test: Effect on mortality of BALB/c mouse inoculated with Cowpox virus at 100 mg/kg after 4 hrs of viral infection, po once daily for 14 days relative to control; assay type: functional
Mus musculus [9] = test: Effect on mortality of BALB/c mouse inoculated with Cowpox virus at 30 mg/kg after 4 hrs of viral infection, po once daily for 14 days relative to control; assay type: functional
Mus musculus [10] = test: Effect on mortality of A/NCr mouse inoculated with ectromelia virus at 100 mg/kg after 72 hrs of viral infection, po once daily for 10 days relative control; assay type: functional
Mus musculus [11] = test: Effect on mortality of BALB/c mouse inoculated with Vaccinia virus WR at 50 mg/kg after 24 hrs of viral infection, po for 9 days; assay type: functional, organism-based; parameters: dose 50 mg/kg
[12] = Selectivity index, ratio of CC50 for HFF cells to EC50 for Vaccinia virus Copenhagen infected HFF cells; assay type: functional
[13] = Selectivity index, ratio of CC50 for HFF cells to EC50 for Vaccinia virus WR infected HFF cells; assay type: functional
[14] = Selectivity index, ratio of CC50 for HFF cells to EC50 for Cowpox virus Brighton infected HFF cells; assay type: functional
Mus musculus [15] = test: Effect on mortality of BALB/c mouse inoculated with Cowpox virus BR at 100 mg/kg after 4 hrs of viral infection, po once daily for 5 days relative to control; assay type: functional
Mus musculus [16] = test: Effect on mortality of BALB/c mouse inoculated with Cowpox virus BR at 100 mg/kg after 24 hrs of viral infection, po once daily for 5 days relative to control; assay type: functional
Mus musculus [17] = test: Effect on mortality of BALB/c mouse inoculated with Cowpox virus at 10 mg/kg after 4 hrs of viral infection, po once daily for 14 days relative to control; assay type: functional
Mus musculus [18] = test: Effect on mortality of BALB/c mouse inoculated with Cowpox virus at 30 mg/kg after 24 hrs of viral infection, po once daily for 14 days relative to control; assay type: functional
Mus musculus [19] = test: Effect on mortality of BALB/c mouse inoculated with Cowpox virus at 100 mg/kg after 24 hrs of viral infection, po once daily for 14 days relative to control; assay type: functional
Ectromelia virus [20] = test: Reduction of Ectromelia virus replication in BALB/c mouse nasal wash at 100 mg/kg, po once daily after 14 days; assay type: functional, organism-based; parameters: dose 100 mg/kg
Ectromelia virus [21] = test: Reduction of Ectromelia virus replication in BALB/c mouse liver at 100 mg/kg, po once daily after 4 days; assay type: functional, organism-based; parameters: dose 100 mg/kg
Ectromelia virus [22] = test: Reduction of Ectromelia virus replication in BALB/c mouse liver at 100 mg/kg, po once daily after 8 days; assay type: functional, organism-based; parameters: dose 100 mg/kg
Ectromelia virus [23] = test: Reduction of Ectromelia virus replication in BALB/c mouse lung at 100 mg/kg, po once daily after 4 days; assay type: functional, organism-based; parameters: dose 100 mg/kg
Ectromelia virus [24] = test: Reduction of Ectromelia virus replication in BALB/c mouse lung at 100 mg/kg, po once daily after 6 days; assay type: functional, organism-based; parameters: dose 100 mg/kg
Ectromelia virus [25] = test: Reduction of Ectromelia virus replication in BALB/c mouse lung at 100 mg/kg, po once daily after 8 days; assay type: functional, organism-based; parameters: dose 100 mg/kg
Ectromelia virus [26] = test: Reduction of Ectromelia virus replication in BALB/c mouse spleen at 100 mg/kg, po once daily after 4 days; assay type: functional, organism-based; parameters: dose 100 mg/kg
Ectromelia virus [27] = test: Reduction of Ectromelia virus replication in BALB/c mouse esophagus at 100 mg/kg, po once daily after 4 days; assay type: functional, organism-based; parameters: dose 100 mg/kg
Ectromelia virus [28] = test: Reduction of Ectromelia virus replication in BALB/c mouse esophagus at 100 mg/kg, po once daily after 8 days; assay type: functional, organism-based; parameters: dose 100 mg/kg
Ectromelia virus [29] = test: Reduction of Ectromelia virus replication in BALB/c mouse trachea at 100 mg/kg, po once daily after 6 days; assay type: functional, organism-based; parameters: dose 100 mg/kg
Ectromelia virus [30] = test: Reduction of Ectromelia virus replication in BALB/c mouse trachea at 100 mg/kg, po once daily after 8 days; assay type: functional, organism-based; parameters: dose 100 mg/kg
Cowpox virus [31] = test: Reduction of Cowpox virus BR replication in BALB/c mouse liver at 50 mg/kg after 24 hrs of viral infection, po for 9 days; assay type: functional, organism-based; parameters: dose 50 mg/kg
Cowpox virus [32] = test: Reduction of Cowpox virus BR replication in BALB/c mouse spleen at 50 mg/kg after 24 hrs of viral infection, po for 9 days; assay type: functional, organism-based; parameters: dose 50 mg/kg
Vaccinia virus [33] = test: Reduction of Vaccinia virus WR replication in BALB/c mouse lung at 50 mg/kg after 24 hrs of viral infection, po for 9 days; assay type: functional, organism-based; parameters: dose 50 mg/kg; conditions: Orthopoxvirus vaccinia
Vaccinia virus [34] = test: Reduction of Vaccinia virus WR replication in BALB/c mouse spleen at 50 mg/kg after 24 hrs of viral infection, po for 9 days; assay type: functional, organism-based; parameters: dose 50 mg/kg; conditions: Orthopoxvirus vaccinia
Ectromelia virus [35] = test: Reduction of Ectromelia virus replication in BALB/c mouse nasal wash at 100 mg/kg, po once daily after 6 days; assay type: functional, organism-based; parameters: dose 100 mg/kg
Ectromelia virus [36] = test: Reduction of Ectromelia virus replication in BALB/c mouse nasal wash at 100 mg/kg, po once daily after 8 days; assay type: functional, organism-based; parameters: dose 100 mg/kg
Mus musculus [37] = test: Effect on mortality of A/NCr mouse inoculated with 4.1 PFU ectromelia virus at 100 mg/kg after 4 hrs of viral infection, po twice daily for 14 days; assay type: functional
Mus musculus [38] = test: Effect on mortality of A/NCr mouse inoculated with 41 PFU ectromelia virus at 100 mg/kg after 24 hrs of viral infection, po twice daily for 14 days; assay type: functional
Ectromelia virus [39] = test: Reduction of Ectromelia virus replication in BALB/c mouse liver at 100 mg/kg, po once daily after 14 days; assay type: functional, organism-based; parameters: dose 100 mg/kg
Ectromelia virus [40] = test: Reduction of Ectromelia virus replication in BALB/c mouse lung at 100 mg/kg, po once daily after 14 days; assay type: functional, organism-based; parameters: dose 100 mg/kg
Ectromelia virus [41] = test: Reduction of Ectromelia virus replication in BALB/c mouse spleen at 100 mg/kg, po once daily after 14 days; assay type: functional, organism-based; parameters: dose 100 mg/kg
Ectromelia virus [42] = test: Reduction of Ectromelia virus replication in BALB/c mouse esophagus at 100 mg/kg, po once daily after 14 days; assay type: functional, organism-based; parameters: dose 100 mg/kg

For `O=C(NN1C(=O)[C@@H]2[C@@H]3C=C[C@@H]([C@H]4C[C@@H]34)[C@@H]2C1=O)c1ccc(C(F)(F)F)cc1` [TECOVIRIMAT], the Activity (Mus musculus [1]) was 40%, the Activity (Mus musculus [2]) was 13% and the Activity (Mus musculus [3]) was 7%. The Activity (Mus musculus [4]) was 20%, the Activity (Mus musculus [5]) was 33% and the Activity (Mus musculus [6]) was 0%. It also gave an Activity (Mus musculus [7]) of 7%, an Activity (Mus musculus [8]) of 11% and an Activity (Mus musculus [9]) of 50%. The Activity (Mus musculus [10]) was 0%, the Activity (Mus musculus [11]) was “Active” and the “Ratio CC50/EC50” value [12] was greater than 2000. For the same molecule, the “Ratio CC50/EC50” value [13] was greater than 1000, the “Ratio CC50/EC50” value [14] was greater than 208 and the Activity (Mus musculus [15]) was 87%. The Activity (Mus musculus [16]) was 73%, the Activity (Mus musculus [17]) was 92% and the Activity (Mus musculus [18]) was 40%. For the same molecule, the Activity (Mus musculus [19]) was 27%, the Activity (Ectromelia virus [20]) was “Active” and the Activity (Ectromelia virus [21]) was “Active”. For the same molecule, the Activity (Ectromelia virus [22]) was “Active”, the Activity (Ectromelia virus [23]) was “Active” and the Activity (Ectromelia virus [24]) was “Active”. The Activity (Ectromelia virus [25]) was “Active”, the Activity (Ectromelia virus [26]) was “Active” and the Activity (Ectromelia virus [27]) was “Active”. For the same molecule, the Activity (Ectromelia virus [28]) was “Active”, the Activity (Ectromelia virus [29]) was “Active” and the Activity (Ectromelia virus [30]) was “Active”. For the same molecule, the Activity (Cowpox virus [31]) was “Active”, the Activity (Cowpox virus [32]) was “Active” and the Activity (Vaccinia virus [33]) was “Active”. The Activity (Vaccinia virus [34]) was “Active”, the Activity (Ectromelia virus [35]) was “inactive” and the Activity (Ectromelia virus [36]) was “inactive”. For the same molecule, the Activity (Mus musculus [37]) was 0%, the Activity (Mus musculus [38]) was 0% and the Activity (Ectromelia virus [39]) was “Active”. The Activity (Ectromelia virus [40]) was “Active”, the Activity (Ectromelia virus [41]) was “Active” and the Activity (Ectromelia virus [42]) was “Active”.
